# Data taken from ChEMBL document CHEMBL1201862, “PubChem BioAssay data set” (2004).
# Active and inactive are the calls of the source. For most assays here, no stated cut-off is given here; in the data, actives have a measured EC50 and inactives only a lower limit.
# Tests used:
# [1] = HPDE-C7 pancreatic duct cell viability loss – fluorescence, HTS (AID 430); assay type: functional, cell-based; conditions: Homo sapiens
# [2] = viability loss of HPDE-C7K cells – cell-based, fluorescence, HTS, primary screen (AID 431); assay type: functional; conditions: Homo sapiens
# [3] = Luminescence Cell-Based Dose Retest to Confirm Inhibitors of Cancer Stem Cells. [Related pubchem assays (depositor defined):AID2717, AID2721]; assay type: functional; conditions: Homo sapiens
# HeLa = assay: ATP-based viability loss in HeLa cells – cell-based, CellTiter-Glo luminescence, cherry-pick samples, cytotoxicity control for MITF activator project, dose response (AID 540259); assay type: functional; conditions: Homo sapiens
# [4] = target: T1, DNA repair and recombination protein RAD54-like (Homo sapiens, UniProt Q92698); assay: RAD54 Holliday junction migration blockers – biochemical, fluorescence, cherry-picked samples, dose series, confirmation (AID 651657); assay type: functional
# T1 sequence (Q92698 whole entry): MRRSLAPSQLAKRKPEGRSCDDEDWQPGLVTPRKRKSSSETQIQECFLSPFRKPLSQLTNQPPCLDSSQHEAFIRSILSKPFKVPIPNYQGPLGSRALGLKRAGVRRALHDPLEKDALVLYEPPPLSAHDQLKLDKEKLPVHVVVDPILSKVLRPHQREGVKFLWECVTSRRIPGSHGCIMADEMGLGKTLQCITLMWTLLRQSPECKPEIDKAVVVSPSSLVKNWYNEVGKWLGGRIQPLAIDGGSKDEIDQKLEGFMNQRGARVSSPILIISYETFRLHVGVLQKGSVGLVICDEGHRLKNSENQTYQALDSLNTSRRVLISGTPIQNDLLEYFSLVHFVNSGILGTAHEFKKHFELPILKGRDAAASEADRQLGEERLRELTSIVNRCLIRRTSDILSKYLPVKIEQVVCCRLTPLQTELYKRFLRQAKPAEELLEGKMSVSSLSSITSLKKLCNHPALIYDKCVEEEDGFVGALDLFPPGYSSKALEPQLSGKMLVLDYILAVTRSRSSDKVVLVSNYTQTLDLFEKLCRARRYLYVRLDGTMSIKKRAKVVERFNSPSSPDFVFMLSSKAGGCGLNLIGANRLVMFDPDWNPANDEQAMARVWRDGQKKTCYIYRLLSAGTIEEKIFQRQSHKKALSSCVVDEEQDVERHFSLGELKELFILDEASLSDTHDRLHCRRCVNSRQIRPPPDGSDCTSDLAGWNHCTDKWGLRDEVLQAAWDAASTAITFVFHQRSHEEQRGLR
# Leucine aminopeptidase = target: T2, Leucine aminopeptidase (Plasmodium falciparum 3D7, UniProt Q8IL11); assay: P. falciparum M17LAP inhibitors, primary screen, biochemical, fluorogenic H-Leu-NHMec substrate, 1536-well (AID 1619); assay type: functional
# T2 sequence (Q8IL11 whole entry): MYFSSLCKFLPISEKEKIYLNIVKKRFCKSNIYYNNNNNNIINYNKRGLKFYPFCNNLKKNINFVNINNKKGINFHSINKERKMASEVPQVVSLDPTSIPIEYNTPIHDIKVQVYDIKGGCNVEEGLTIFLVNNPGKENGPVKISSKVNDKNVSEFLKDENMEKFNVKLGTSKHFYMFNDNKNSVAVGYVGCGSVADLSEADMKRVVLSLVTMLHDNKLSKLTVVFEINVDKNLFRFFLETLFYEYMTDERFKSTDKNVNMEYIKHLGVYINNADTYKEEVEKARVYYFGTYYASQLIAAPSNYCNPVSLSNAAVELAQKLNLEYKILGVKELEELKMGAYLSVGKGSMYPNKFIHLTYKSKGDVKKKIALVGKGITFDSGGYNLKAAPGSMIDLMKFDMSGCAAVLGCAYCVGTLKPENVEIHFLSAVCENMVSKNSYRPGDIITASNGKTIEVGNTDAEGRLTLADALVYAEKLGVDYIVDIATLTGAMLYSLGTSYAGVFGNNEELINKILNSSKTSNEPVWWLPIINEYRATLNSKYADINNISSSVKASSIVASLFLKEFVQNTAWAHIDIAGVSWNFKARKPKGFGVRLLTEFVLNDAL
# BJ [5] = assay: BJ-TERT fibroblast viability loss – cell-based, RAS-independent, luminescence, dose response (AID 1933); assay type: functional; conditions: Homo sapiens
# BJ [6] = assay: cells; assay type: functional, cell-based; conditions: Homo sapiens
# [7] = target: Luciferin 4-monooxygenase (Photinus pyralis, UniProt P08659); assay: inhibition of purified Photinus pyralis luciferase – biochemical, luminescence, dose response (AID 1891)
# [8] = Luminescence Cell-Based Dose Confirmation HTS to Identify Inhibitors of Platelet Dense Granule Release. [Related pubchem assays: 1663 (Primary HTS), 1678 (Summary of Project)]; assay type: functional
# BJ [9] = assay: BJ-TERT-LT-ST fibroblast viability loss – cell-based, RAS-independent, luminescence, dose response (AID 1935); assay type: functional; conditions: Homo sapiens;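 further: BJ fibroblasts immortalized with TERT plus LT and ST oncogenes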
# [10] = DRD fibroblast viability loss – cell-based, non-viral oncogenic, luminescence, dose response (AID 1934); assay type: functional; conditions: Homo sapiens
# P388/ADR = assay: cells; assay type: functional; conditions: Mus musculus, P388/ADR
# SN12K1 = assay: cells; assay type: functional; conditions: Homo sapiens, SN12K1
# [11] = target: T3, RNA-binding protein pos-1 (Caenorhabditis elegans, UniProt G5EF15); assay: disruptors of C. elegans POS-1 RNA interaction – biochemical, fluorescence polarization, dose response (AID 1964);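 further: purified POS-1 fused to maltose binding protein made in E. coli; potency of compounds blocking POS-1 binding to fluorescent RNA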
# T3 sequence (G5EF15 whole entry): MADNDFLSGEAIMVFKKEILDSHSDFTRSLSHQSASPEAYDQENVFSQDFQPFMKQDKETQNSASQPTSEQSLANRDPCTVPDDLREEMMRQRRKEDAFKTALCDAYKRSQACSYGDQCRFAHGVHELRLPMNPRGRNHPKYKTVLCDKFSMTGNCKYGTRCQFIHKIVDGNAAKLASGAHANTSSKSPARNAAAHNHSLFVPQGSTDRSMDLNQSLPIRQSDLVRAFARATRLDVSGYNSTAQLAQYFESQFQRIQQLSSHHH
# [12] = target: T4, Zinc finger protein mex-5 (Caenorhabditis elegans, UniProt Q9XUB2); assay: potency of MEX-5 RNA-binding blockers – biochemical, C. elegans, fluorescence polarization, dose response (AID 1960)
# T4 sequence (Q9XUB2 whole entry): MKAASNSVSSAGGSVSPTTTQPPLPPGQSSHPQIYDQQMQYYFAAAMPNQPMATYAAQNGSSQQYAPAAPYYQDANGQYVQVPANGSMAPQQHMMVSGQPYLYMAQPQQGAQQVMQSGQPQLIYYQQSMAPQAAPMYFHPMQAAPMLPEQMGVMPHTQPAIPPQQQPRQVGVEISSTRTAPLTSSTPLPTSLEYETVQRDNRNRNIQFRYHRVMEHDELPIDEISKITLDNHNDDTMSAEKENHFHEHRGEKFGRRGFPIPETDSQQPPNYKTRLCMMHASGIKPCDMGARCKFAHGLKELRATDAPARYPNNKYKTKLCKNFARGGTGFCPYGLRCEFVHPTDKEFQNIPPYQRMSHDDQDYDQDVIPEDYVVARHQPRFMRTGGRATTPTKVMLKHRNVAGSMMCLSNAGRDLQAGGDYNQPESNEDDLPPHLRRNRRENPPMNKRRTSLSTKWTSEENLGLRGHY
# [13] = target: T5, Ubiquitin-conjugating enzyme E2 N (Homo sapiens, UniProt P61088); assay type: functional;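 further: Dose-response confirmation in a TR-FRET assay detecting UBC13-driven polyubiquitin chain formation, inhibition measured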
# T5 sequence (P61088 whole entry): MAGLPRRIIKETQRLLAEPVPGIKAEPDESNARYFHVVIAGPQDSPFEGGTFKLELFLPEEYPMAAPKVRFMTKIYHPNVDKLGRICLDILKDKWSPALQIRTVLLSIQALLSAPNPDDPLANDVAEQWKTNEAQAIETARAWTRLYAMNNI
# [14] = luciferase reporter signal suppression in cells – H4 neuroglioma cells, luminescence, dose response (AID 1990); assay type: functional, cell-based
# [15] = Luminescence Cell-Based Dose Response HTS to Identify Inhibitors of 5'UTR Stem-Loop Driven Prion Protein mRNA Translation in H4 Neuroglioblastoma Cells. [Related pubchem assays: 1827 (Project Summary), 1813 (Primary HTS)]; assay type: functional
# [16] = target: T6, Heat shock factor protein 1 (Mus musculus, UniProt P38532); assay: decrease of HSF1-responsive luciferase luminescence – cell-based, NIH3T3, dose retest, confirmation (AID 2382); assay type: functional;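 further: NIH3T3 fibroblasts with HSF1-driven luciferase reporter stressed by proteasome inhibitor MG132; luminescence from HSF1-driven luciferase expression after 8 hours of MG132 stress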
# T6 sequence (P38532 whole entry): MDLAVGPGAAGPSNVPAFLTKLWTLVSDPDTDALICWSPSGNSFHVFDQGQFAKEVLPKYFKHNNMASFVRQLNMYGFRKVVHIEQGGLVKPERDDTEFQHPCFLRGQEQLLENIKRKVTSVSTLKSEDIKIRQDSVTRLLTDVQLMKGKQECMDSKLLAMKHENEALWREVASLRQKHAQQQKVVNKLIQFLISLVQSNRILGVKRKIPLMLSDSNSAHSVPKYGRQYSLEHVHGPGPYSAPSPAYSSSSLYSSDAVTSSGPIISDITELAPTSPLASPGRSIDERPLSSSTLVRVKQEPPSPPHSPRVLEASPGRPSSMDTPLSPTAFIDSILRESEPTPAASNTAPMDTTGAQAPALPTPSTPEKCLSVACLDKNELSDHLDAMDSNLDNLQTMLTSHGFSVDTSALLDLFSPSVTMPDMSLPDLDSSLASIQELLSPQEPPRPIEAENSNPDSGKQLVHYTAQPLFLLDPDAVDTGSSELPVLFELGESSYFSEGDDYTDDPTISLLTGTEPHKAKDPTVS
# [17] = alpha-synuclein stem-loop luciferase translation blockers – H4 neuroglioma cells, luminescence, confirmation (AID 1988); assay type: functional, cell-based
# INS1 = assay: INS-1E survival protection against cytokine death – cell-based, luminescence, retest, dose response (AID 449756); assay type: functional; conditions: Rattus norvegicus;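 further: cell death triggered by IL-1 beta plus TNF-alpha plus IFN-gamma mixture; protective hits raise ATP signal compared with cytokine alone wells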
# [18] = reduction of Shn3 3'UTR-driven luciferase in osteoblasts – cell-based, Clone20 osteoblasts, firefly luciferase, cherry-picked, dose response (AID 624132); assay type: functional;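 further: firefly luciferase luminescence from reporter carrying the Shn3 3'UTR in osteoblasts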
# [19] = loss of viability in HepG2 cells – cell-based, CellTiter-Glo, cherry-picked, cytotoxicity control for Shn3 inhibitor project, dose response (AID 624134); assay type: functional
# [20] = non-specific 3'UTR reporter inhibition in Clone20-Shn3RL – cell-based, Renilla luciferase, cherry-picked, counter-screen for Shn3 inhibitor project, dose response (AID 624133); assay type: functional
# Sequence of Luciferin 4-monooxygenase (P08659 whole entry): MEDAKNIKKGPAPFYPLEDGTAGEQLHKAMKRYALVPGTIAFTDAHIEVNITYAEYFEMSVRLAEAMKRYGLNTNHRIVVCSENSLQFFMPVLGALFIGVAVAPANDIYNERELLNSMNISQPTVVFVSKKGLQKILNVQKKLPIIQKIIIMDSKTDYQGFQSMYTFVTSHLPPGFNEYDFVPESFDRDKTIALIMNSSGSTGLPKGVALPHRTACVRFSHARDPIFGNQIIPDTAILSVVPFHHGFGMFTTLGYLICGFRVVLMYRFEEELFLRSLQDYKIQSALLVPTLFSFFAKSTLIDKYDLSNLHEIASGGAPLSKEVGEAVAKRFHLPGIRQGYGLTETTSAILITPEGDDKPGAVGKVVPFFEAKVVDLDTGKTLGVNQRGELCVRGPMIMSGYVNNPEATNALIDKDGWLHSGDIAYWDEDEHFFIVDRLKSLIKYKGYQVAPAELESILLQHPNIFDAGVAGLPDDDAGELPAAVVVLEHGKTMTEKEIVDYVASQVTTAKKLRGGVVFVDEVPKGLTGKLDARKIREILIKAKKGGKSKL
compound,measurement,setting,value
CC(C)Cn1nc(NS(=O)(=O)c2ccccc2)c2cc3ccccc3nc21,EC50,[1],> 20 µM (not active)
same,EC50,[2],> 20 µM (not active)
NS(=O)(=O)c1ccc(NC=C2C(=O)N(C3CCCCC3)C(=O)N(C3CCCCC3)C2=O)cc1,EC50,[1],5.47 µM (active)
same,EC50,[2],5.81 µM (active)
same,AC50,[3],3.92 µM (active)
CC(C)c1ccc(NC2=NN=C(c3cccs3)CS2)cc1,AC50,HeLa,63.8 µM (active)
CCOc1ccc2[nH]c3c(NCCN(C)C)ncnc3c2c1,AC50,[4],55.6 µM (active)
CC(C)=NN=C(N)NC(=S)Nc1ccc(C)cc1,IC50,Leucine aminopeptidase,59.3 µM (active)
O=C(Nc1ccccc1)Nc1ccc(C(=O)N2CCCC2)cc1,EC50,BJ [5],9.11 µM (active)
same,EC50,BJ [6],9.01 µM (active)
same,EC50,[7],0.571 µM (active)
same,EC50,[8],3.93 µM (active)
same,EC50,BJ [9],> 150 µM (inconclusive)
same,EC50,[10],7.86 µM (active)
O=NN(CCCl)C(=O)NC1CCC(CC2CCC(NC(=O)N(CCCl)N=O)CC2)CC1 (stereo unspecified),GI50,P388/ADR,1.64 µM (inactive)
same,GI50,SN12K1,0.385 µM (active)
CC(C)N1CCc2c(sc(NC(=O)c3ccc(C(=O)c4ccccc4)cc3)c2C(N)=O)C1,AC50,[4],68.7 µM (active)
CCOC(=O)c1cc(=O)n2nc(-c3ccccc3F)nc2s1,IC50,Leucine aminopeptidase,31.2 µM (active)
same,EC50,[11],> 300 µM (not active)
same,EC50,[12],> 300 µM (not active)
CCn1c(=O)c2cc(C(=O)NCCN(C)C)sc2c2ccccc21,IC50,[13],> 20 µM (inactive)
same,AC50,[4],30.7 µM (active)
c1csc(-c2noc(COc3ccc4c(c3)CCCC4)n2)c1,AC50,HeLa,> 350 µM (inactive)
CCOC(=O)c1c(NC(=O)c2ccc(-n3cnnn3)cc2)sc2c1CCCC2,EC50,[1],> 20 µM (not active)
same,EC50,[2],> 20 µM (not active)
C=CCC1(CC=C)CCCN1C(=O)C1CCC(=O)N(CCc2ccccc2)C1 (stereo unspecified),AC50,HeLa,93 µM (active)
Cc1ccc(-c2cc(-c3ccc(C)cc3O)[nH]n2)cc1,AC50,HeLa,44.6 µM (active)
CC(=O)c1sc(NC(=O)c2ccc3c(c2)OCO3)nc1C,AC50,HeLa,51.5 µM (active)
CCCCNC(=S)Nc1ccc2cn[nH]c2c1,IC50,Leucine aminopeptidase,75.6 µM (active)
O=C(N/N=C\c1cccc(Cl)c1)c1[nH]nc2c1CCCC2,AC50,HeLa,> 350 µM (inactive)
CCn1cc(C(=O)NCCN(C)C)c(=O)c2cc(F)c(N3CCN(C)CC3)cc21,AC50,[4],21.1 µM (active)
O=C(CCl)Nc1ccccc1C(=O)NCc1ccccc1,EC50,BJ [5],> 150 µM (not active)
same,EC50,BJ [6],> 150 µM (not active)
same,EC50,BJ [9],> 150 µM (not active)
same,EC50,[10],> 150 µM (inconclusive)
COc1ccc(-c2csc(-n3cccn3)n2)cc1,AC50,HeLa,33.9 µM (active)
CC[C@H]1CN2CCc3cc(OC)c(OC)cc3[C@@H]2C[C@@H]1C[C@H]1NCCc2cc(OC)c(OC)cc21,EC50,[14],< 0.1 µM (active)
same,EC50,[15],< 0.1 µM (active)
same,EC50,[16],< 0.16 µM (active)
same,EC50,[17],< 0.1 µM (active)
same,EC50,[1],0.15 µM (active)
same,EC50,[2],0.09 µM (active)
same,AC50,INS1,2.35 µM (active)
same,AC50,[18],< 0.26 µM (active)
same,AC50,[19],40.5 µM (active)
same,AC50,[20],0.33 µM (active)
